Data reported in PubChem BioAssay AID1919001 (Molecular Pharmacology Branch, DTP, NCI, 2023).
Several values for one entry are separate records, joined by “and”; a condition that tells them apart may be missing. Identical values can stand only once.

System: 699152-130-R-J1-PDC complex spheroid growth
Assay: Anticancer human tumor 699152-130-R-J1-PDC patient-derived pancreatic carcinoma cell line growth inhibition [AhR]
Conditions: for viability, T/C: stronger effect = lower value; for IC50: curve of compound
Source text: Multicellular complex tumor spheroid response to aryl hydrocarbon receptor antagonists in combination with a variety of drugs and investigational agents in selected tumor cell lines
The current study was undertaken to assess response to aryl hydrocarbon receptor antagonists in combination with standard-of-care drugs and investigational agents in solid tumor complex spheroid models. Complex spheroids include a stromal component modeled by human endothelial cells (HUVEC) and fibroblasts modeled by human mesenchymal stem cells (MSCs). The concentration ranges selected for each drug and investigational agent were based upon clinically achievable concentrations if the clinical Cmax of the agent was known.
Compounds. The drugs and investigational agents: BAY 2416964 (NSC825713), GNF351 (NSC835774), CH-223191 (NSC835775), CPI-455 (NSC825282), aza-TdCyd (NSC777586), decitabine (NSC127716), belinostat (NSC758774), entinostat (NSC756642), pevonedistat (NSC761192), tazemetostat (NSC777109), talazoparib (NSC765396), olaparib (NSC753686), selinexor (NSC780203), nedisertib (M3814, NSC802822), bortezomib (NSC756655), venetoclax (NSC766270), doxorubicin (NSC123127), elimusertib (BAY189344, NSC800525), ceralasertib (AZD6738, NSC777638), TAK-243 (NSC785004), alisertib (NSC759677), etoposide (NSC141540), topotecan (NSC609699), eribulin (NSC707389), gemcitabine (NSC613327), carboplatin (NSC241240), cisplatin (NSC119875), and SN-38 (NSC673596) were obtained from the National Cancer Institute (NCI) Developmental Therapeutics Program Chemical Repository (32). The FDA-approved anticancer drug set is available from the Developmental Therapeutics Program at https://dtp.cancer.gov/organization/dscb/obtaining/available plates.htm. […] The stock solutions were prepared in dimethyl sulfoxide (DMSO, Sigma-Aldrich, St. Louis, MO, cat. D2650), except for the platinum compounds which were prepared in saline (Quality Biological, Gaithersburg, MD, cat. 114-055-101), at 800-fold the tested concentration and stored at -70 degrees C prior to their use. All drugs and investigational agents were tested over a range starting from a high concentration at or near the clinical Cmax and decreasing in half-log increments. If the clinical Cmax for an agent had not been determined, the highest concentration tested was 10 microM (Table 1).
Cell Culture. All cells were maintained in an incubator at 37 degrees C and 5% CO2 with 95% humidity. The PDC lines were cultured according to standard operating procedures established by the NCI PDMR (https://pdmr.cancer.gov). Briefly, all PDCs were thawed and cultured in Matrigel-coated flasks prepared with a working solution of 1X Ham's F-12 nutrient mix, without supplementation (Invitrogen, Waltham, MA, cat. 11765054), 100 U/mL penicillin-streptomycin (Invitrogen, cat. 15140122), and 2.5% Matrigel (Corning Inc., Corning, NY, cat. 354248) for the first three passages. All PDCs were cultured in complete DMEM/F-12 media containing advanced DMEM/F-12 (Invitrogen, cat. 12634028), 4.9% defined fetal bovine serum, heat inactivated (HyClone Laboratories Inc., Logan, UT, cat. SH30070.03HI), 389 ng/mL hydrocortisone (Sigma-Aldrich, cat. H4001), 9.7 ng/mL human EGF recombinant protein (Invitrogen, cat. PHG0313), 23.4 microg/mL adenine (Sigma-Aldrich, cat. A2786), 97.3 U/mL penicillin-streptomycin (Invitrogen, cat. 15140122), 1.9 mM L-glutamine (Invitrogen, cat. 25030081), and 9.7 microM Y-27632 dihydrochloride (Tocris Bioscience, Bristol, United Kingdom, cat. 1254). The PDCs were cultured in complete DMEM/F12 media without 10 microM Y-27632 dihydrochloride for at least two passages prior to the screen. The established cell lines NCI-H1341 and […] were cultured in DMEM/F-12, HEPES (Invitrogen, cat. 11330032), 5% defined fetal bovine serum (HyClone Laboratories Inc., cat. SH30070.03), ITS premix universal culture supplement [insulin (5 microg/mL), transferrin (5 microg/mL), and selenious acid (5 ng/mL)] […]
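Also: compound exposure lasted 7 days after spheroids had grown for 3 days.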

SMILES	viability, T/C (compound 0.00949 µM)	viability, T/C (compound 0.03 µM)	viability, T/C (compound 0.0949 µM)	viability, T/C (compound 0.3 µM)	viability, T/C (compound 0.949 µM)	viability, T/C (compound 3 µM)	IC50	viability, T/C (compound 0.000316 µM)	viability, T/C (compound 0.001 µM)	viability, T/C (compound 0.00316 µM)	viability, T/C (compound 0.01 µM)	viability, T/C (compound 0.0316 µM)	viability, T/C (compound 0.1 µM)	viability, T/C (compound 0.000949 µM)	viability, T/C (compound 0.003 µM)	viability, T/C (compound 0.316 µM)	viability, T/C (compound 1 µM)	viability, T/C (compound 3.16 µM)	viability, T/C (compound 10 µM)
CCN(c1cc(-c2ccc(CN3CCOCC3)cc2)cc(C(=O)NCc2c(C)cc(C)[nH]c2=O)c1C)C1CCOCC1	101% and 104% and 103%	95.7% and 110% and 98.5%	111% and 87.2% and 115%	93.7% and 115% and 95%	107% and 114% and 113%	105% and 111% and 113%	> 3 µM	–	–	–	–	–	–	–	–	–	–	–	–
CC[C@@]1(O)C(=O)OCc2c1cc1n(c2=O)Cc2cc3c(CN(C)C)c(O)ccc3nc2-1	–	–	–	–	–	–	> 0.1 µM	103% and 108% and 86.6%	91.2% and 96.4% and 99%	104% and 102% and 90%	103% (2×) and 83.5%	90.8% and 91.3% and 70%	62.8% and 70.9% and 53.5%	–	–	–	–	–	–
CCc1c2c(nc3ccc(O)cc13)-c1cc3c(c(=O)n1C2)COC(=O)[C@]3(O)CC	66.3% and 61.5% and 59.9%	55.8% and 44.3% and 57.9%	49% and 43.6% and 52%	33.9% and 33.8% and 38%	–	–	0.0604 µM and 0.02 µM and 0.0277 µM	–	–	–	–	–	–	85.1% and 90.1% and 88.5%	86.8% and 87.7% and 95.1%	–	–	–	–
COc1cc(C2c3cc4c(cc3C(OC3OC5COC(C)OC5C(O)C3O)C3COC(=O)C23)OCO4)cc(OC)c1O (stereo not given)	–	–	–	–	–	–	> 10 µM and 4.09 µM	–	–	–	–	97.3% and 94.8% and 92.4%	94.7% and 101% and 86.3%	–	–	76.1% and 83.2% and 73.8%	66.5% and 70.9% and 62.2%	68.3% and 64.6% and 51.9%	53.4% and 53.8% and 44.4%
COc1cc(Nc2ncc3c(n2)-c2ccc(Cl)cc2C(c2c(F)cccc2OC)=NC3)ccc1C(=O)O	–	–	–	–	–	–	> 10 µM	–	–	–	–	97.6% and 87.1% and 94%	71.4% and 74.1% and 85.8%	–	–	80.8% and 74.1% and 72%	60.1% and 59.5% and 65.4%	58.4% and 63% and 64.4%	55.9% and 54.8% and 60.7%
